In ChEMBL document CHEMBL1140442, “Potent cannabinergic indole analogues as radioiodinatable brain imaging agents for the CB1 cannabinoid receptor” (J Med Chem, 2005):
pKi: −log10 of the molar value.

How the values were obtained:
[1] = target: Cannabinoid receptor 1 (Rattus norvegicus, UniProt P20272); experiment: Binding affinity towards rat forebrain cannabinoid receptor 1 using [3H]CP-55940
[2] = target: Cannabinoid receptor 2 (Mus musculus, UniProt P47936); experiment: Binding affinity towards mouse spleen cannabinoid receptor 2 using [3H]CP-55940; type: tissue-based
Cannabinoid receptor 2, sequence (P47936 whole entry): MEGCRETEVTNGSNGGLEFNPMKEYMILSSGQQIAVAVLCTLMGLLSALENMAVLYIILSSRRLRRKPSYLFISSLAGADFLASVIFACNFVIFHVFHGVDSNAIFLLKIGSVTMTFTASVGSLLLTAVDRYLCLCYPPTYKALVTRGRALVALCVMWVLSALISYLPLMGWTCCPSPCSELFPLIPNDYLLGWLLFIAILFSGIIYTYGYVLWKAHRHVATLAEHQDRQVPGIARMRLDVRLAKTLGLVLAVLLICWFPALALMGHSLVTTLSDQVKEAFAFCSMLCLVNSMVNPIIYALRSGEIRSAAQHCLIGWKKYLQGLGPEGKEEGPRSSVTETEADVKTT

[3] = target: T1, Cannabinoid receptor 1 (Mus musculus, UniProt P47746); experiment: Binding affinity towards mouse hippocampal membranes cannabinoid receptor 1 using [131I]-(R)-8
T1 sequence (P47746 whole entry): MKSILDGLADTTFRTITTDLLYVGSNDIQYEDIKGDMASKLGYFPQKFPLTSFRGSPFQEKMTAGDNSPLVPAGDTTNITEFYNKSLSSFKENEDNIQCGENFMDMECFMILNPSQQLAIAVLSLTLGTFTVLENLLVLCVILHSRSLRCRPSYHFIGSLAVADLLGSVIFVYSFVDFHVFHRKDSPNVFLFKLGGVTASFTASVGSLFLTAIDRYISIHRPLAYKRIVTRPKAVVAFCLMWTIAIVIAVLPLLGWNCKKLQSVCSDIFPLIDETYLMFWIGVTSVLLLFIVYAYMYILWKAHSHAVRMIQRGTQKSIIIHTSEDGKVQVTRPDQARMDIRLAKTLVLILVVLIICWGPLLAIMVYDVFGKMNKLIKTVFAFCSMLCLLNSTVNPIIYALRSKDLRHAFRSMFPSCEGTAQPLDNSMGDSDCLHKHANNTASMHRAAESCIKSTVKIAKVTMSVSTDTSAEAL

[4] = target: T1, Cannabinoid receptor 1; experiment: Binding affinity towards mouse hippocampal membranes cannabinoid receptor 1 using [3H]SR-141,716A

Cannabinoid receptor 1 (Rattus norvegicus, UniProt P20272), sequence (P20272 whole entry): as the sequence (P47746 whole entry) above, with D95E counted along it

For `CN1CCCC[C@H]1Cn1cc(C(=O)c2ccccc2I)c2ccccc21`, the pKi [1] was 6.25.
Compound `Cc1c(C(=O)c2ccc(I)cc2)c2ccccc2n1CC1CCCCN1C` (configuration not stated) has a pKi [2] of 6.10.
`Cc1c(C(=O)c2cccc(I)c2)c2ccccc2n1CC1CCCCN1C` (configuration not stated) was tested, and the pKi [1] was 5.54 and the pKi [2] was 5.02.
`CN1CCCCC1Cn1cc(C(=O)c2ccccc2I)c2ccccc21` (configuration not stated) gave a pKi [3] of 9.70 and a pKi [4] of 8.89.
Compound `CN1CCCCC1Cn1cc(C(=O)c2ccc(I)c3ccccc23)c2ccccc21` (configuration not stated) has a pKi [2] of 8.28.
`CN1CCCCC1Cn1cc(C(=O)c2cccc3ccccc23)c2ccc(I)cc21` (configuration not stated) showed a pKi [1] of 7.74 and a pKi [2] of 8.01.
`CN1CCCCC1Cn1cc(C(=O)c2cccc3ccccc23)c2ccccc21` (configuration not stated) gave a pKi [1] of 9.12 and a pKi [2] of 8.72.
Work on `Cc1c(C(=O)c2ccccc2I)c2ccccc2n1CC1CCCCN1C` (single isomer, unassigned; (+)) yielded a pKi [1] of 8.17 and a pKi [2] of 8.00.
Work on `Cc1c(C(=O)c2ccccc2I)c2ccccc2n1CC1CCCCN1C` (single isomer, unassigned; (-)) yielded a pKi [1] of 5.92 and a pKi [2] of 7.08.
`Cc1c(C(=O)c2ccccc2I)c2ccccc2n1CC1CCCCN1C` (stereo in doubt; 5) gave a pKi [1] of 7.47 and a pKi [2] of 7.47.
